# Experimental data taken from US20090239858A1, “THERAPEUTIC AMIDES” (ALLERGAN, INC., priority 2008, published 2009).
# Tested on: lashes and adjacent hairs of patients
# Test: Eyelash and hair growth observed in glaucoma patients treated in one eye
# Type: in vivo, human
# Conditions: glaucoma patients treated in only one eye
# Text: In the course of treating patients having glaucoma, treatment may only be appropriate in one eye. […] The lash appearance on the lids of the treated eyes would have appeared quite attractive if it represented a bilateral phenomenon. As a result of its asymmetric nature, the long lashes on one side could be construed as disturbing from a cosmetic standpoint. A systemic examination was preformed as a result of the asymmetric phenomenon. It soon became apparent that this altered appearance was not an isolated finding. […] Definite differences could be identified to varying degrees in the lashes and adjacent hairs of all patients who were taking the drug on a unilateral basis for longer than 6 months.
# The changes in the lashes were apparent on gross inspection in several patients once attention was focused on the issue. In those with light colored hair and lashes, the differences were only seen easily with the aid of the high magnification and lighting capabilities of the slit lamp biomicroscope. In the course of glaucoma follow-up examination, attention is generally immediately focused on the eye itself. As a result of the high power magnification needed only one eye is seen at a time and the eye is seen at a high enough power that the lashes are not in focus. […]
smiles,measurement,value
CCNC(=O)CCC/C=C\C[C@@H]1[C@@H](/C=C/[C@@H](O)CCc2ccccc2)[C@H](O)C[C@@H]1O [bimatoprost],lash appearance in treated eye versus non-treated eye,"longer, thicker, and fuller"
